{
  "source": "patent US20170369878A1",
  "about": "“MICRORNA COMBINATIONS FOR ANTI-CANCER THERAPEUTICS” (Massachusetts Institute of Technology, priority 2015, published 2017)",
  "test_system": "OVCAR8 cells and OVCAR8-ADR cells",
  "assay": "Docetaxel dose-response (MTT), resistant versus parental line",
  "format": "cell-based, human",
  "details": "docetaxel three days, FIG. 13",
  "experimental": "OVCAR8 cells (triangles) and OVCAR8-ADR (squares) cells (docetaxel-resistant derivative of OVCAR8) cells were treated with docetaxel at indicated doses for three days and subjected to the MTT assay. Cell viabilities were compared to the respective no drug controls. The OVCAR8-ADR cell line has a ˜3-fold higher IC50 than the parental OVCAR8 cell line. Data represent the mean±SD (n=3).\nFor the MTT assay, 100 μl of MTT (3-(4,5-dimethylthiazol-2-yl)-2,5-diphenyltetrazolium bromide) solution (Sigma) was added to the cell cultures in 96-well plates and incubated at 37° C. with 5% CO2 for 2 hours. Viable cells convert the soluble MTT salt to insoluble blue formazan crystals. Formazan crystals formed were dissolved with 100 μl of solubilization buffer at 37° C. The absorbance of the solubilized formazan was measured at an optical density (OD) of 570 nm (along with the reference OD at 650 nm) using a Synergy H1 Microplate Reader (BioTek). For the trypan blue exclusion assay, cells were trypsinized and stained with 0.4% trypan blue dye solution (Sigma). Viable cells were counted in four different fields of a hemacytometer under microscopy.",
  "data": [
    {"smiles": "CC(=O)O[C@@]12CO[C@@H]1C[C@H](O)[C@@]1(C)C(=O)[C@H](O)C3=C(C)[C@@H](OC(=O)[C@H](O)[C@@H](NC(=O)OC(C)(C)C)c4ccccc4)C[C@@](O)([C@@H](OC(=O)c4ccccc4)[C@H]21)C3(C)C", "note": "[docetaxel]", "values": [
      {"measurement": "IC50 of OVCAR8-ADR relative to parental OVCAR8", "result": "~3", "unit": "fold"}
    ]}
  ]
}
